Data on 4 compounds can be found in PMC9312958, “A Novel and Selective Dopamine Transporter Inhibitor, (S)-MK-26, Promotes Hippocampal Synaptic Plasticity and Restores Effort-Related Motivational Dysfunctions” (Biomolecules, 2022).

In test [1] the test system is DAT. Also on record: method as in PMID 16885432. The following applies: read-out: IC50, DAT-inhibiting power; cited from earlier work.
For test [2], the target named is T1, hDAT (Homo sapiens, UniProt Q01959).
T1 construct: expressed in transfected cells
T1 sequence (Q01959 whole entry): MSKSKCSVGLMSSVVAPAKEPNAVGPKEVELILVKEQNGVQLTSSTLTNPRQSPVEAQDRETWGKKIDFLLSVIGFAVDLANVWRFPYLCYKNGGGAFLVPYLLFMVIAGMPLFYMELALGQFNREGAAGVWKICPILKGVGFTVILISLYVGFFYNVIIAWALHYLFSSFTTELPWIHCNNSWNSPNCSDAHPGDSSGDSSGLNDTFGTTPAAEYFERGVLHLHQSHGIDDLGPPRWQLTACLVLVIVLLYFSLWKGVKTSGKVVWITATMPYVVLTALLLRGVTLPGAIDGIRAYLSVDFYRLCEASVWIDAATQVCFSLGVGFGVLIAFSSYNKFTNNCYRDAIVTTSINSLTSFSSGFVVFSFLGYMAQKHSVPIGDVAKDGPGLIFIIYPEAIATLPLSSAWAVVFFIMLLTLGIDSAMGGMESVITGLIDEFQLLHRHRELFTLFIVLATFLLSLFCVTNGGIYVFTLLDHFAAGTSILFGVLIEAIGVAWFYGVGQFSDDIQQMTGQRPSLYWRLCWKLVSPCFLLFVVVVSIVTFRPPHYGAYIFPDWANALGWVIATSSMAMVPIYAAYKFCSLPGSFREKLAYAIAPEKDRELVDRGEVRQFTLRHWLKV
Put plainly: Uptake inhibition assay in HEK293 cells expressing hDAT. Format: cell-based. The method, then:
(§1) Human embryonic kidney 293 cells (HEK293 cells) were cultivated in Dulbecco’s Modified Eagle Medium (DMEM), containing 10% heat-inactivated fetal calf serum (FCS; 100 mL/L), streptomycin (100 μg/100 mL) and penicillin ([…]). Geneticin (50 μg/mL) was added to select cells stably expressing the human isoforms of dopamine, norepinephrine and serotonin transporter (hDAT, hNET, and hSERT, respectively) as described earlier. Cell lines were maintained in culture in humidified atmosphere (37 °C, 5% CO2), and passaged when reached 80–90% confluency. Cells expressing the desired transporter were seeded the day before the experiment (40,000 cells per well) or two days before the experiments (20,000 cells per well) onto poly-D-lysine (PDL)-coated 96-well plates.
(§2) Uptake inhibition experiments were carried out as reported previously. Ninety-six-well plates containing hDAT-, hNET- or hSERT-expressing cells were washed with Krebs-HEPES buffer (KHB; 25 mM HEPES, 120 mM NaCl, 5 mM KCl, 1.2 mM CaCl2, and 1.2 mM MgSO4 and 5 mM D-glucose, pH = 7.3). Cells were then preincubated with increasing concentrations of the compound diluted in KHB for 6 min. Following the pre-incubation of the cells with the compound, the tritiated substrate (hDAT: 0.15 μM [^3H]DA; hNET: 0.05 μM [^3H]MPP^+; hSERT: 0.1 μM [^3H]5-HT) was added to the wells. The uptake was terminated by removal of tritiated substrate and by washing the cells with ice-cold KHB after 1 min (for hDAT and hSERT) or 3 min (for hNET). Thereafter, 200 μL of Ultima Gold^TM XR scintillation cocktail (PerkinElmer, MA, USA) was added, the plates were shaken and the radioactivity accumulated into the cells determined in a Wal-lac 1450 MicroBeta TriLux Liquid Scintillation Counter & Lumi (GMI, Ramsey, MN, USA). Non- specific tritiated substrate uptake was measured in the presence of 100 μM cocaine (for hDAT and hNET) or 10 μM paroxetine (for hSERT), and subtracted from the data. Uptake in the presence of test drugs was normalized to the uptake in the presence of the vehicle.

Test [3] concerns the target T2, hSERT (Homo sapiens, UniProt P31645).
T2 construct: expressed in transfected cells
The test is described as follows: Uptake inhibition assay in HEK293 cells expressing hSERT. Format: cell-based. The method, then: as §1
Uptake inhibition experiments were carried out as reported previously. […] Thereafter, 200 μL of Ultima Gold^TM XR scintillation cocktail (PerkinElmer, MA, USA) was added, the plates were shaken and the radioactivity accumulated into the cells determined in a Wal-lac 1450 MicroBeta TriLux Liquid Scintillation Counter & Lumi (GMI, Ramsey, MN, USA). Non- specific tritiated substrate uptake was measured in the presence of 100 μM cocaine (for hDAT and hNET) or 10 μM paroxetine (for hSERT), and subtracted from the data. […]

In test [4] the target is T3, hNET (Homo sapiens, UniProt P23975).
T3 construct: expressed in transfected cells
T3 sequence (P23975 whole entry): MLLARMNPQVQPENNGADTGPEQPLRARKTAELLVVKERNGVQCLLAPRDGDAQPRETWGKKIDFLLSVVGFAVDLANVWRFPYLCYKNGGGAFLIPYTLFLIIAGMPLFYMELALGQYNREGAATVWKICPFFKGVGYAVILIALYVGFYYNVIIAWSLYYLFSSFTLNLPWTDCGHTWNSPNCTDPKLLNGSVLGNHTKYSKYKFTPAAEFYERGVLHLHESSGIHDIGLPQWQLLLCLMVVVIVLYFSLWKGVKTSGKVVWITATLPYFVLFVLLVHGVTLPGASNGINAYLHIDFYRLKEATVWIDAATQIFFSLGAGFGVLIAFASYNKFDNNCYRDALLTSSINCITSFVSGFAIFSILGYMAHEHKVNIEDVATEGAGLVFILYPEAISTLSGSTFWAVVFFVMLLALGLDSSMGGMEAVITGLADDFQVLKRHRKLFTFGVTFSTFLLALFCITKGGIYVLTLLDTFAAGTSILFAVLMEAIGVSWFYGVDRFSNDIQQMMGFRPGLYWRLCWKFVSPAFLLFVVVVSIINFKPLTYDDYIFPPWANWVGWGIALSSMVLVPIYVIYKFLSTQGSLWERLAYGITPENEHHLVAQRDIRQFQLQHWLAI
The test is described as follows: Uptake inhibition assay in HEK293 cells expressing hNET. Format: cell-based. The method, then: as §1, §2

Test [5] has as its system adult male Sprague Dawley rats. The test is described as follows: FR5/chow feeding choice task. Type of test: in vivo, rat. The following applies: 1.0 mg/kg TBZ plus vehicle vs vehicle plus vehicle. Here is the method:
Pharmacological agents: (S)-MK-26 was obtained from the Lubec Laboratory (University of Vienna, Austria) and dissolved in dimethyl sulfoxide (DMSO) (10%), Tween 80 (15%), and 0.9% saline (75%). The DMSO/Tween 80/saline mixture was administered as the vehicle control. The dose range was selected as 3.75–45.0 mg/kg based on its DAT affinity and pilot studies. It was administered 30 min before testing. TBZ (9,10-dimethoxy3-(2-methylpropyl)-1,3,4,6,7, 11b hexahydrobenzo[a]quinolizin2-one) was obtained from Tocris Bioscience (Ellisville, MO) and was dissolved in DMSO (20%) and 0.9% saline (80%) and was titrated with 1.0 N HCl until the drug was dissolved at a pH of 4.0–4.5. The DMSO/saline solution with equal amounts of HCl was administered as the vehicle control. The selected dose was 1.0mg/kg based on the previous research from our laboratory. It was administered 120 min prior to testing.
FR5/chow feeding choice task: A total of 8 adult male Sprague Dawley rats (Envigo Sprague Dawley, Indianapolis, IN, USA; weights 275–299 g upon arrival) were pair-housed in a colony maintained at 23 °C, with a 12 h light/dark cycle (lights on 07:00). Rats were food deprived to 85% of their free-feeding body weight with modest growth throughout the experiment and water was available ad libitum in their home cages. All the animal protocols were approved by the University of Connecticut Institutional Animal Care and Use Committee, and the experiments were completed according to National Institutes of Health guidelines.
Behavioral sessions were conducted in operant chambers (28 × 23 × 23 cm^3; Med Associates, Fairfax, VT, USA) with 30 min sessions 5 days/week. Rats were initially trained to lever press on magazine training for 3 days, followed by an FR1 schedule for 3 days (high-carbohydrate 45-mg pellets, Bio-Serv, Frenchtown, NJ, USA), and then moved to the FR5 schedule. After 5 weeks of training on the FR5 schedule, lab chow was introduced as the concurrently available choice food (Laboratory Diet, 5P00 Prolab RMH 3000, Purina Mills, St. Louis, MO, USA; typically 15–20 g). At the end of each session, rats were immediately removed from the chambers. The number of lever pressing was recorded and the amount of consumed chow was calculated by weighing the remaining food, including spillage. Rats were trained on the FR5/chow feeding choice task for 5 weeks, after which drug testing began.
To test the effects of (S)-MK-26 on FR5/Chow feeding choice task, trained rats were administered either with TBZ (1.0 mg/kg) or vehicle 120 min before testing, and (S)-MK-26 also with doses of 15.0, 30.0, 45.0 mg/kg or vehicle 30 min before testing, via intraperitoneal (IP) injections on drug testing days. A repeated-measures design was utilized where each rat received each drug treatment in a randomly varied order, once per week. The following five treatment combinations were given: TBZ vehicle + (S)-MK-26 vehicle; 1.0 mg/kg TBZ + (S)-MK-26 vehicle; 1.0 mg/kg TBZ + 15.0 mg/kg (S)-MK-26; 1.0 mg/kg TBZ + 30.0 mg/kg (S)-MK-26; 1.0 mg/kg TBZ + 45.0 mg/kg (S)-MK-26. Next, to see if the effects of lower doses, the following four treatment combinations were given in a repeated measure design: TBZ vehicle + (S)-MK-26 vehicle; 1.0 mg/kg TBZ + (S)-MK-26 vehicle; 1.0 mg/kg TBZ + 3.75 mg/kg (S)-MK-26; 1.0 mg/kg TBZ + 7.5 mg/kg (S)-MK-26.

Structures are written as SMILES. A value given as a limit tells only on which side of the number the result lay.

T2 sequence (P31645 whole entry): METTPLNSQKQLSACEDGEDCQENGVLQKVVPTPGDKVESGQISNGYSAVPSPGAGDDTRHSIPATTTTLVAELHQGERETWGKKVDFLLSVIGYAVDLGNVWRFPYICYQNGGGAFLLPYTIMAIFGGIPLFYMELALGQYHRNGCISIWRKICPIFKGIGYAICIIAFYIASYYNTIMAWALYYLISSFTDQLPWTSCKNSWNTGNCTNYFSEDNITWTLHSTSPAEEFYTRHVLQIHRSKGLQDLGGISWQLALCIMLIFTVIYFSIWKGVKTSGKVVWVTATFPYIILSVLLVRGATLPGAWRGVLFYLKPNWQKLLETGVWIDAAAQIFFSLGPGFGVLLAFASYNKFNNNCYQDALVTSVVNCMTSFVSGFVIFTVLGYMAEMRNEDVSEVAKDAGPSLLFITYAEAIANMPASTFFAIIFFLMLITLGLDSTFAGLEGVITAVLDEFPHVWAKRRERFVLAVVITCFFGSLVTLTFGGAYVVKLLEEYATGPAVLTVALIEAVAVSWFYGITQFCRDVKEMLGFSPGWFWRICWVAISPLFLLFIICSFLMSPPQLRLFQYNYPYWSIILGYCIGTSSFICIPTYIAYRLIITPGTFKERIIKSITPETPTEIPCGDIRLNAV

By IC50 is commonly meant the concentration that inhibits the measured activity by half. Consider `NC(=O)C[S+]([O-])C(c1ccccc1)c1ccccc1` (racemic) [modafinil], for which the IC50 in test [1] was […].
Regarding `[O-][S@+](Cc1cncs1)C(c1cccc(Cl)c1)c1cccc(Cl)c1` [(R)-MK-26, (R)-5-(((bis(3-chlorophenyl)methyl)sulphinyl)methyl)thiazole], the IC50 is 36.3 µM in test [2], more than 1000 µM in test [3] and 2160 µM in test [4].
With `NC(=O)C[S@@+]([O-])C(c1ccccc1)c1ccccc1` [(R)-Modafinil, reference compound], the IC50 in test [4] was determined as 127 µM.
Regarding `COc1cc2c(cc1OC)C1CC(=O)C(CC(C)C)CN1CC2` (stereo not shown) [TBZ, 9,10-dimethoxy3-(2-methylpropyl)-1,3,4,6,7, 11b hexahydrobenzo[a]quinolizin2-one, reference compound], in test [5], the “effect on chow intake” value is reported as “increasing chow intake” and the “effect on lever pressing” value is listed as “decreasing lever pressing”.
